# Reference: patent US10086030B2, “Use of composition in preparing health care products or medicines for preventing and treating allergic diseases” (JIANGZHONG PHARMACEUTICAL CO., LTD., priority 2012, dated 2018)
# “And” between values parts separate entries of the source, which are not always exact repeats. Equal entries are not always repeated.
# How the values were obtained:
# [1] = system: local itching in mice caused by low-molecular-weight dextran; test: Local itching in mice caused by low-molecular-weight dextran; type: in vivo, Kunming mice
# Method: Intragastric administration was carried out to the mice once per day for 10 consecutive days. 30 min after the final administration, a 0.0125% low-molecular-weight dextran solution was injected at 0.1 g/10 g into the tail vein. The number of itching events (itching events were indicated by scratching on the head with front paws, scratching on the body with hind paws, and biting on various parts over the body) occurred within 30 min after injection with the low-molecular-weight dextran solution into tail veins of the mice in each group was observed and recorded. […] The number of itching events (itching events were indicated by scratching on the head with front paws, scratching on the body with hind paws, and biting on various parts over the body) occurred within 30 min after injection with the low-molecular-weight dextran solution into tail veins of the mice in each group was observed and recorded. […] The number of itching events (itching events were indicated by scratching on the head with front paws, scratching on the body with hind paws, and biting on various parts over the body) occurred within 30 min after injection with the low-molecular-weight dextran solution into tail veins of the mice in each group was observed and recorded. […] The number of itching events (itching events were indicated by scratching on the head with front paws, scratching on the body with hind paws, and biting on various parts over the body) occurred within 30 min after injection with the low-molecular-weight dextran solution into tail veins of the mice in each group was observed and recorded.
# [2] = system: passive anaphylaxis (PCA) in rats caused by ovalbumin; test: Passive anaphylaxis (PCA) in rats caused by ovalbumin: diameter of blue spots, mast cell degranulation, serum histamine; type: in vivo, SD rats; conditions: for Diameter of blue spots 1:4: 1:4 anti-ovalbumin serum; for Diameter of blue spots 1:8: 1:8 anti-ovalbumin serum
# Method: On day 15, the back of the rats were shaved, and was intradermally injected with a diluted antiserum at two spots on each side with 0.1 ml per spot. After 48 hours, a 1.0 ml mixed solution of 1% Evans Blue and 1% ovalbumin in physiological saline was injected into the tail vein of each rat. […] The rats were then sacrificed, and their back skin was inverted to measure the diameter of blue reaction spots to determine the difference between the dosing groups and the model group. A sample of the rat skin tissue was fixed with neutral formaldehyde, dehydrated with an alcohol gradient, embedded in paraffin, and examined for mast cell degranulation in the tissue[^3]. […] On day 15, the back of the rats were shaved, and was intradermally injected with a diluted antiserum at two spots on each side with 0.1 ml per spot. After 48 hours, a 1.0 ml mixed solution of 1% Evans Blue and 1% ovalbumin in physiological saline was injected into the tail vein of each rat. […] The rats were then sacrificed, and their back skin was inverted to measure the diameter of blue reaction spots to determine the difference between the dosing groups and the model group. A sample of the rat skin tissue was fixed with neutral formaldehyde, dehydrated with an alcohol gradient, embedded in paraffin, and examined for mast cell degranulation in the tissue^[3]. […] On day 15, the back of the rats were shaved, and was intradermally injected with a diluted antiserum at two spots on each side with 0.1 ml per spot. After 48 hours, a 1.0 ml mixed solution of 1% Evans Blue and 1% ovalbumin in physiological saline was injected into the tail vein of each rat. […] The rats were then sacrificed, and their back skin was inverted to measure the diameter of blue reaction spots to determine the difference between the dosing groups and the model group. A sample of the rat skin tissue was fixed with neutral formaldehyde, dehydrated with an alcohol gradient, embedded in paraffin, and examined for mast cell degranulation in the tissue^[3]. […] On day 15, the back of the rats were shaved, and was intradermally injected with a diluted antiserum at two spots on each side with 0.1 ml per spot. After 48 hours, a 1.0 ml mixed solution of 1% Evans Blue and 1% ovalbumin in physiological saline was injected into the tail vein of each rat. […] The rats were then sacrificed, and their back skin was inverted to measure the diameter of blue reaction spots to determine the difference between the dosing groups and the model group. A sample of the rat skin tissue was fixed with neutral formaldehyde, dehydrated with an alcohol gradient, embedded in paraffin, and examined for mast cell degranulation in the tissue^[3]. […] On day 15, the back of the rats were shaved, and was intradermally injected with a diluted antiserum at two spots on each side with 0.1 ml per spot. After 48 hours, a 1.0 ml mixed solution of 1% Evans Blue and 1% ovalbumin in physiological saline was injected into the tail vein of each rat. […] The rats were then sacrificed, and their back skin was inverted to measure the diameter of blue reaction spots to determine the difference between the dosing groups and the model group. A sample of the rat skin tissue was fixed with neutral formaldehyde, dehydrated with an alcohol gradient, embedded in paraffin, and examined for mast cell degranulation in the tissue^[3]. […] On day 15, the back of the rats were shaved, and was intradermally injected with a diluted antiserum at two spots on each side with 0.1 ml per spot. After 48 hours, a 1.0 ml mixed solution of 1% Evans Blue and 1% ovalbumin in physiological saline was injected into the tail vein of each rat. […] The rats were then sacrificed, and their back skin was inverted to measure the diameter of blue reaction spots to determine the difference between the dosing groups and the model group.
# [3] = system: delayed hypersensitivity in mouse auricle skin caused by 2,4-dinitrochlorobenzene; test: Delayed hypersensitivity in mouse auricle skin caused by 2,4-dinitrochlorobenzene; type: in vivo, Kunming mice; conditions: mice
# Method: A 5% 2,4-dinitrochlorobenzene solution in ethanol was applied onto the abdominal skin (shaved) of the mice for sensitization. […] 7 days after sensitization, a 1% 2,4-dinitrochlorobenzene solution was applied onto the right ear, and the mice were sacrificed after 24 hours, and both ears were cut off along the auricle baseline. Discs having a diameter of 8 mm were punctured out at the same position on both ears, precisely weighed on an electronic balance, and the weight difference between the left and right ears was taken as the value for delayed hypersensitivity.
# [4] = prednisone 5.0 mg, Composition 6 study
# [5] = prednisone 5.0 mg, Composition 7 study
# [6] = prednisone 5.0 mg, Composition 8 study
smiles,measurement,setting,value
C[C@]12C=CC(=O)C=C1CC[C@@H]1[C@@H]2C(=O)C[C@@]2(C)[C@H]1CC[C@]2(O)C(=O)CO [prednisone],Number of itching events (30 min),[1]; [4],15.43 ± 4.56
same,Number of itching events (30 min),[1]; [5],15.57 ± 5.33
same,Number of itching events (30 min),[1]; [6],14.88 ± 5.08
same,Number of itching events (30 min),"[1]; within 30 min after dextran, positive control prednisone 5.0 mg i.g. once daily 10 days",18.30 ± 4.62 and 14.25 ± 6.72 and 17.20 ± 4.08
same,Diameter of blue spots 1:4,[2]; [4],13.22 ± 1.90 mm
same,Diameter of blue spots 1:4,[2]; [5],12.48 ± 2.16 mm
same,Diameter of blue spots 1:4,[2]; [6],12.82 ± 2.62 mm
same,Diameter of blue spots 1:8,[2]; [4],8.65 ± 1.52 mm
same,Diameter of blue spots 1:8,[2]; [5],8.32 ± 1.63 mm
same,Diameter of blue spots 1:8,[2]; [6],8.54 ± 1.82 mm
same,Diameter of blue spots (mm) 1:4,"[2]; antiserum 1:4, positive control prednisone 5.0 mg (5 mg/kg) i.g. once daily 14 days",12.79 ± 1.88 mm and 11.94 ± 1.90 mm and 11.35 ± 1.74 mm
same,Diameter of blue spots (mm) 1:8,"[2]; antiserum 1:8, positive control prednisone 5.0 mg (5 mg/kg) i.g. once daily 14 days",6.72 ± 1.31 mm
same,Degranulation (mast cell),[2]; [4],19.80 ± 10.57
same,Histamine fluorescence (serum histamine content),[2]; [4],2.07 ± 0.76 mg·L
same,Degranulation (mast cell),[2]; [5],17.54 ± 11.23
same,Histamine fluorescence (serum histamine content),[2]; [5],2.11 ± 0.70 mg·L
same,Degranulation (mast cell),[2]; [6],17.95 ± 11.82
same,Histamine fluorescence (serum histamine content),[2]; [6],2.25 ± 0.76 mg·L
same,Degranulation (mast cell),"[2]; skin tissue, positive control prednisone 5.0 mg (5 mg/kg) i.g. once daily 14 days",22.54 ± 11.25 and 19.46 ± 8.72 and 21.33 ± 10.48
same,swelling degree of mouse auricle discs,[3]; positive control prednisone 5.0 mg (5 mg/kg) i.g. once daily 10 days,5.07 ± 0.59 mg and 4.22 ± 0.96 mg and 4.80 ± 0.73 mg
same,swelling degree of mouse auricle discs,[3]; [4],4.62 ± 0.79 mg
same,swelling degree of mouse auricle discs,[3]; [5],4.84 ± 0.70 mg
same,swelling degree of mouse auricle discs,[3]; [6],4.60 ± 0.82 mg
